Assay results: PMC2832019, “In Vitro Metabolic and Mitogenic Signaling of Insulin Glargine and Its Metabolites” (PLoS ONE, 2010)

Experiments:
[1] = system: MCF-7 cells, HCT-116 (colorectal cancer) and PC-3 (prostate cancer) cells; conditions: ref [49]; cited from earlier work
From the text: A correlation between IGF1R autophosphorylation and cell proliferation has been recently assumed by Shukla et al., who observed an enhanced growth of the malignant cell line MCF7 after insulin glargine stimulation. The authors have observed 10% and 50% increases of cellular proliferation at 0.31 and about 15 nmol/L. […] Unfortunately, no dose-response curve of IGF1R autophosphorylation as well as no proliferation data from siRNA knockdown of IR have ...

human IR-A [2] = test: Competitive receptor binding (SPA), IR-A
Description: (§1) The binding of the different insulins to the human IR-A and IR-B was analyzed in a competitive binding assay using the scintillation proximity assay as previously described, [30]. […] Briefly, cells were grown to confluence and gently detached, transferred to a centrifugation tube followed by centrifugation for 10 minutes at 600×g at 4°C. The pellet was resuspended in ice-cold 2.25 STM buffer (2.25 mol/L sucrose, 5 mmol/L Tris-HCl pH 7.4, 5 mmol/L MgCl2, 1x Complete Protease Inhibitor) and disrupted using a hand-held Dounce homogenizer followed by sonication. This homogenate was transferred to a centrifugation tube, overlaid with 0.8 STM buffer (0.8 mol/L sucrose, 5 mmol/L Tris-HCl pH 7.4, 5 mmol/L MgCl2, 1x Complete Protease Inhibitor) and centrifuged for 90 minutes at 100 000×g at 4°C. The emerging pellicle at the interface was collected, transferred to a new tube and washed two times with PBS by centrifugation for 10 minutes at 1500×g. The final pellet was resuspended in a small volume of dilution buffer (50 mmol/L Tris-HCl pH 7.4, 5 mmol/L MgCl2, 1x Complete Protease Inhibitor) and homogenized with a Dounce homogenizer. These plasma membrane preparations were stored until usage at –80°C.
(§2) Binding experiments were conducted in 96-well microplates. Per well 2 µg of membranes were incubated with 0.25 mg wheat germ agglutinin polyvinyltoluene polyethylenimine SPA beads, 100 pmol/L A14[^125I]-insulin and various concentrations of unlabeled insulins in a binding buffer containing 0.05 mol/L Tris-HCl pH 7.8, 0.15 mol/L NaCl, 0.1% BSA, Complete Protease Inhibitor for 12 hours at room temperature (23°C). The radioactivity was measured at equilibrium in a microplate scintillation counter (Wallac Microbeta, Freiburg, Germany).
(§3) For each experiment, IC50 or EC50 values were obtained using the 4-parameter logistic model according to Ratkowsky and Reedy (1986). The adjustment was obtained by non-linear regression using the Levenberg-Marquardt algorithm in SAS v9.1.3 software via Biost@t-Speed V2.0-LTS internal application. If necessary, lower and upper asymptotes were set to 0 and 100, respectively.
(§4) The binding of a constant concentration of [^125I]insulin to plasma membranes from CHO cells overexpressing either IR-A or IR-B was measured in presence of increasing concentrations of unlabeled competing ligand after incubation at room temperature for 12 h. All data has been corrected for non-specific binding and are expressed as percentage of [^125I]insulin in absence of competing ligand. To analyze the insulin-stimulated activation and subsequent autophosphorylation of the insulin receptor CHO cells overexpressing the human IR-A (C) or IR-B (D) were stimulated for 15 min at 37°C with increasing concentrations of peptides, then the cells were fixed with 3.7% PFA and the amount of phosphotyrosines was analyzed via In-Cell Western. The data represent mean values ± SEM of at least 3 individual experiments measured in quadruplicate.

human IR-B [3] = test: Competitive receptor binding (SPA), IR-B
Description: as §1, §2, §3, §4

human IR-A [4] = test: IR-A autophosphorylation (In-Cell Western); type: cell-based; conditions: CHO cells overexpressing IR-A, 15 min at 37°C, In-Cell Western; means ± SEM, at least three times; read-out: IR-A auto-phosphorylation EC50
From the text: (§5) CHO cells expressing either the IR-A or the IR-B isoform were used for IR autophosphorylation assays using In-Cell Western. For the analysis of IGF1R autophosphorylation the receptor was overexpressed in a mouse embryo fibroblast 3T3 Tet off cell line (BD Bioscience, Heidelberg, Germany) that was stably transfected with IGF1R tetracycline-regulatable expression plasmid resulting in the expression of ∼2.6×10^5 IGF1R per cell (as determined by FACS analysis, unpublished data). In order to determine the receptor tyrosine phosphorylation level, cells were seeded into 96-well plates and grown for 48 h. Cells were serum starved with serum-free medium αMEM (PAN Biotech GmbH, Aidenbach, Germany) for 3–4 h. […] After incubation the medium was discarded and the cells were fixed in 3.75% freshly prepared para-formaldehyde for 20 min. Cells were permeabilized with 0.1% Triton-X-100 in PBS for 20 min. Blocking was performed with Odyssey blocking buffer (LI-COR, Bad Homburg, Germany) overnight at 4°C. Anti-pTyr 4G10 (Millipore, Schwalbach, Germany) was incubated for 2 h at room temperature. After incubation of the primary antibody, cells were washed with PBS+0.1% Tween20. The secondary anti-mouse-IgG-800-CW antibody (Rockland, Gilbertsville, PA, USA) was incubated for 1 h. Results were normalized by the quantification of DNA with TO-PRO3 dye (Invitrogen, Karlsruhe, Germany). Data were obtained as relative units (RU) and are presented as fold over basal.
as §3, §4
(§6) Insulin receptor autophosphorylation was studied using CHO cells overexpressing either IR-A or IR-B. For detection an immunocytochemical microplate assay (In-Cell Western) based on two-colour fluorescence was applied.

human IR-B [5] = test: IR-B autophosphorylation (In-Cell Western); type: cell-based; conditions: CHO cells overexpressing IR-B, 15 min at 37°C, In-Cell Western; means ± SEM, at least three times; read-out: IR-B auto-phosphorylation EC50
From the text: as §5, §3, §4, §6

human IGF1R = test: Competitive binding, IGF1R; conditions: [^125I]IGF-1 as radioactive ligand; means ± SEM, at least three times; read-out: IGF1R affinity IC50
Description: as §2, §3
Figure 4 Activity of insulin analogs on the human IGF1R and mitogenic potential in Saos-2 cells. Analysis of binding to the human IGF1R using [^125I]IGF-1 as radioactive ligand (A) and analysis of the insulin-stimulated autophosphorylation of the human IGF1R overexpressed in MEF cells (B) were done as described in figure 2 and Materials and Methods. Data are given as means ± SEM. […] Confluent cells were starved for 4 h and then incubated for 19 h with increasing concentrations of IGF-1, insulin or analog in serum free medium. [^14C]thymidine was added for further 6 h and the radioactivity measured in a Wallac Micro Scintillation counter. Data are given as means ± SEM from octuplicate sample.

| higher affinity for IR-A than IR-B (human IR-A [2]; IR-A relative to IR-B) [fold] | IC50 (human IR-A [2]; SPA, WGA PVT PEI beads, 2 µg membranes from CHO cells overexpressing IR-A, 100 pmol/L A14[^125I]-insulin, pH 7.8, 12 h, 23°C, means ± SEM, at least three times, read-out: IR-A affinity IC50) [µM] | IC50 (human IR-B [3]; SPA, WGA PVT PEI beads, 2 µg membranes from CHO cells overexpressing IR-B, 100 pmol/L A14[^125I]-insulin, pH 7.8, 12 h, 23°C, means ± SEM, at least three times, read-out: IR-B affinity IC50) [µM] | EC50 (human IR-A [4]) [µM] | EC50 (human IR-B [5]) [µM] | IC50 (human IGF1R) [µM] | Substance | mitogenic potency [1] | IR-A binding relative to IGF-1 and human insulin (human IR-A [2]; IR-A, in words) | IR-B binding relative to IGF-1 and human insulin (human IR-B [3]; IR-B, in words) |
| --- | --- | --- | --- | --- | --- | --- | --- | --- | --- |
|  |  |  |  |  |  | insulin detemir | increased mitogenic potency |  |  |
| 7.5 | 0.0062 ± 0.00034 | 0.0466 ± 0.0078 | 0.0854 ± 0.0055 | 0.384 ± 0.0684 | 0.00668 ± 0.00224 | IGF-2: IGF-2 obtained from R&D Systems and Cell Sciences |  | higher affinity than IGF-1 but with lower affinity than human insulin | higher affinity than IGF-1 but with lower affinity than human insulin |
